This is an account of results in article PMC9563442, “Purification, Characterization, and Immobilization of a Novel Protease-Resistant α-Galactosidase from Oudemansiella radicata and Its Application in Degradation of Raffinose Family Oligosaccharides from Soymilk” (Foods, 2022).

The structures appear in SMILES notation.

Holding throughout (format): biochemical, Hymenopellis radicata
Experiment [1] concerns T1, ORG (O. radicata α-galactosidase).
T1 construct: native, purified from commercial dry fruiting bodies; 74 kDa by gel filtration, SDS-PAGE bands 50 and 24 kDa
Nature of the experiment: p-nitrophenol release, absorbance at […] nm, Michaelis-Menten plot. Conditions: free enzyme; pNPG 0.5-4 mM, NaAc-HAc pH 4.6, 40 °C.

Experiment [2] has as its target T1, ORG (O. radicata α-galactosidase). Put plainly: pNPG hydrolysis, absorbance at […] nm, Dixon plot. To be noted: mixed-type inhibition; pNPG 1.5-3 mM as substrate, NaAc-HAc pH 4.6, 40 °C.
The test system of experiment [3] is T1, ORG (O. radicata α-galactosidase). Nature of the experiment: reducing sugar release (DNS method), Michaelis-Menten plot. To be noted: free enzyme, 50 °C. The text has this:
reducing sugar release (DNS method), Michaelis-Menten plot on ORG (O. radicata α-galactosidase)

Turning to `O=[N+]([O-])c1ccc(O[C@H]2O[C@H](CO)[C@H](O)[C@H](O)[C@H]2O)cc1` [4-nitrophenyl-α-D-galactopyranoside], the Km in experiment [1] came out at 580 µM.

Regarding `OC[C@H]1OC(O)[C@H](O)[C@@H](O)[C@H]1O` (some centres unmarked) [galactose], in experiment [2], affinity was put at a Ki of 5.94 mM.

Compound `OC[C@H]1O[C@H](OC[C@H]2OC(O)[C@H](O)[C@@H](O)[C@@H]2O)[C@H](O)[C@@H](O)[C@H]1O` (some centres unmarked) [melibiose] had a Ki in experiment [2] of 1.86 mM.

For the compound `OC[C@H]1O[C@H](OC[C@H]2O[C@H](O[C@]3(CO)O[C@H](CO)[C@@H](O)[C@@H]3O)[C@H](O)[C@@H](O)[C@@H]2O)[C@H](O)[C@@H](O)[C@H]1O` [raffinose], the Km in experiment [3] (raffinose 2-40 mM, read-out: Raffinose / Km) came to 16.5 mM.

Turning to `OC[C@H]1O[C@H](OC[C@H]2O[C@H](OC[C@H]3O[C@H](O[C@]4(CO)O[C@H](CO)[C@@H](O)[C@@H]4O)[C@H](O)[C@@H](O)[C@@H]3O)[C@H](O)[C@@H](O)[C@H]2O)[C@H](O)[C@@H](O)[C@H]1O` [stachyose], the Km in experiment [3] (stachyose 2-40 mM, read-out: Stachyose / Km) was 19 mM.

A word on the Ki: it is a dissociation constant, usually derived from enzyme kinetics or from competition with a known ligand. The low end stands for tighter binding, the high end for weaker binding.
